Measurements from ChEMBL document CHEMBL1909046, “DrugMatrix in vitro pharmacology data”.

Assays:
[1] = DRUGMATRIX: Phosphodiesterase PDE3 enzyme inhibition (substrate: [3H]cAMP + cAMP); assay type: tissue-based, Homo sapiens; settings: platelet; Not Active = under 50% inhibition at 10 µM
Leukotriene C4 synthase = target: T1, Leukotriene C4 synthase (Cavia porcellus, UniProt A6XA80); assay type: tissue-based, Lung;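 also: enzyme inhibition assay of leukotriene C4 synthase, using LTA4 as the substrate; in other assays of this panel Not Active means under 50% inhibition at 10 µM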
T1 sequence (A6XA80 whole entry): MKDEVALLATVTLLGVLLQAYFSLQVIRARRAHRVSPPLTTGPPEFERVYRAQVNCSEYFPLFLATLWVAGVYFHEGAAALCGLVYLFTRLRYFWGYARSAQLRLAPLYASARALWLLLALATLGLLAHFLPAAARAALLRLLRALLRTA

[2] = target: Mitogen-activated protein kinase 14 (Homo sapiens, UniProt Q16539); design: species or system Escherichia coli;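 also: inhibition of p38alpha enzyme activity in a biochemical kinase assay, with myelin basic protein serving as substrate; in other assays of this panel Not Active means under 50% inhibition at 10 µM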
Insulin receptor = Insulin receptor (Rattus norvegicus, UniProt P15127); assay type: cell membranes, Wistar, Liver, Membrane; also: in other assays of this panel Not Active means under 50% inhibition at 10 µM
[3] = DRUGMATRIX: GABAA, Muscimol, Central radioligand binding (ligand: [3H] Muscimol); assay type: cell membranes, Rattus norvegicus, Wistar, Brain, Membrane; settings: Not Active = under 50% inhibition at 10 µM
Histamine H2 receptor = Histamine H2 receptor (Homo sapiens, UniProt P25021); assay type: cell membranes, CHO-K1, Membrane; also: in other assays of this panel Not Active means under 50% inhibition at 10 µM
[4] = target: Platelet-activating factor receptor (Homo sapiens, UniProt P25105); assay: biochemical; assay type: tissue-based; settings: platelet; also: in other assays of this panel Not Active means under 50% inhibition at 10 µM
Chain of Platelet-activating factor receptor (P25105 whole entry): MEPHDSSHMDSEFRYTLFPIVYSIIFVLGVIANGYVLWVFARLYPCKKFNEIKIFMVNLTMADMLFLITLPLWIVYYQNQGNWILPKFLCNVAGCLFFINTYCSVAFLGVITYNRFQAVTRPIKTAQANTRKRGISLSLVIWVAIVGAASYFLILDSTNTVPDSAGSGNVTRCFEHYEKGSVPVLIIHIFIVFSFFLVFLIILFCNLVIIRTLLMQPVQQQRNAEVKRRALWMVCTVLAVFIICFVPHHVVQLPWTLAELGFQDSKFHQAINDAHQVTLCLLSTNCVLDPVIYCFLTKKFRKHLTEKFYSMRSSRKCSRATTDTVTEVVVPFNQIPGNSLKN

Chain of Histamine H2 receptor (P25021 whole entry): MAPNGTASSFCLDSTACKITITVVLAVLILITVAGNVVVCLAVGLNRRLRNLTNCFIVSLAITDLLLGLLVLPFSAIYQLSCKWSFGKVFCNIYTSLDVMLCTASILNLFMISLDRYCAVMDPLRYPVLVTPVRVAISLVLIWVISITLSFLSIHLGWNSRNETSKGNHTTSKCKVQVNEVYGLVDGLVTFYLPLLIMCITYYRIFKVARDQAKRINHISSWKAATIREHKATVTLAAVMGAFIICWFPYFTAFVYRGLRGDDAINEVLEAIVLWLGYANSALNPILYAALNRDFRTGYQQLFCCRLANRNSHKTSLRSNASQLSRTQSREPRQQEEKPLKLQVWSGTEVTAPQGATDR
Chain of Insulin receptor (P15127 27-759 limits assumed): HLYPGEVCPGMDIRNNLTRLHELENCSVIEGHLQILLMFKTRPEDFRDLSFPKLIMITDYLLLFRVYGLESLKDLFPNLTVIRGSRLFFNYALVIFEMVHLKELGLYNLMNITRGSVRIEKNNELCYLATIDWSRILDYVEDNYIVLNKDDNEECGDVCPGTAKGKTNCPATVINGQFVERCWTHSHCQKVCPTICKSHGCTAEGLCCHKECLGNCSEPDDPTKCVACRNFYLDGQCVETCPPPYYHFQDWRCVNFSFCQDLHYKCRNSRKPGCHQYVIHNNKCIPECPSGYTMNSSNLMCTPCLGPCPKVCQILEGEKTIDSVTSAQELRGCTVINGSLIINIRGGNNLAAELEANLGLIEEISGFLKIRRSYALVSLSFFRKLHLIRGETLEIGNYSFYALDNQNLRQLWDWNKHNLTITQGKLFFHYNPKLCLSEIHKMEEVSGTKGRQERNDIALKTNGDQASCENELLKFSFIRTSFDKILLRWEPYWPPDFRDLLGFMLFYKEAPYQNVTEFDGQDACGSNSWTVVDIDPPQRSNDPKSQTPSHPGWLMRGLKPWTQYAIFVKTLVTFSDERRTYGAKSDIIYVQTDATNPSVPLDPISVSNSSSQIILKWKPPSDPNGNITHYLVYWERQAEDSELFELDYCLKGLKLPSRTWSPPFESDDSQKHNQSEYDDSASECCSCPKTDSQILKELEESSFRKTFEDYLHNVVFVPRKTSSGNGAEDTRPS
Chain of Insulin receptor (P15127 764-1383 limits assumed): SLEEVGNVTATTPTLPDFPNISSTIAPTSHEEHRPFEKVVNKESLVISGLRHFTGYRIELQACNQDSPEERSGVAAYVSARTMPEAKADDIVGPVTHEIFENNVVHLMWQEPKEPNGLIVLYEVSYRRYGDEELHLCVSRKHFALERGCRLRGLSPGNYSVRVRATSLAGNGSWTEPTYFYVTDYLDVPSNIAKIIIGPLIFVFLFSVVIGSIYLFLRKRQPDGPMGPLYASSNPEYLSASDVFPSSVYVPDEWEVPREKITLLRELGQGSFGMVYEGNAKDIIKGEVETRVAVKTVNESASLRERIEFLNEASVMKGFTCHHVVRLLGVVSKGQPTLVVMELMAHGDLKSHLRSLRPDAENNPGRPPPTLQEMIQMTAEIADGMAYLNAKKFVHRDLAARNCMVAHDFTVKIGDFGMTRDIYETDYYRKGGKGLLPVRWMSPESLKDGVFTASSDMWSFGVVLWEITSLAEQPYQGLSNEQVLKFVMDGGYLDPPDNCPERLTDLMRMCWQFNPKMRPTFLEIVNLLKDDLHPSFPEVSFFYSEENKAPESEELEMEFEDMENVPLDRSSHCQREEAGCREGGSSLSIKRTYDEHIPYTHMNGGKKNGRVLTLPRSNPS
Chain of Mitogen-activated protein kinase 14 (Q16539 whole entry): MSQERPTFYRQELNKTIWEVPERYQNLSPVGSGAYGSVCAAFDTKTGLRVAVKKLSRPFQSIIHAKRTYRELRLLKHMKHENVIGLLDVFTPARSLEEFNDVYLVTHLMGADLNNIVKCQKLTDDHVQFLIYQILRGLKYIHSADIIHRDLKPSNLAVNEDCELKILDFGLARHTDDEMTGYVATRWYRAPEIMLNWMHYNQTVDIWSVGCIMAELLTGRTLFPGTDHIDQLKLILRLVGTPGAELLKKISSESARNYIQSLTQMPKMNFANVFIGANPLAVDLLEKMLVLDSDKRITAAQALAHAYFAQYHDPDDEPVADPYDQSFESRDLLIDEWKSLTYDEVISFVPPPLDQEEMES

Row | Compound | IC50 [1] | Ki [1] | IC50 (Leukotriene C4 synthase) | IC50 [2] | IC50 (Insulin receptor) | IC50 [3] | Ki [3] | IC50 (Histamine H2 receptor; cho-k1) | IC50 [4] | Ki (Leukotriene C4 synthase) | Ki [2] | Ki (Insulin receptor) | Ki (Histamine H2 receptor; cho-k1) | Ki [4] | IC50 (Histamine H2 receptor; read-out: IC50) | Ki (Histamine H2 receptor; read-out: Ki) | IC50 ([2]; read-out: IC50)
1 | CCS(=O)(=O)CCn1c([N+](=O)[O-])cnc1C [TINIDAZOLE] | Not Active | Not Active | Not Active | Not Active | Not Active | Not Active | Not Active | Not Active | Not Active | – | – | – | – | – | – | – | –
2 | Nc1nc2c(c(=O)[nH]1)N(C=O)C(CNc1ccc(C(=O)N[C@@H](CCC(=O)O)C(=O)O)cc1)CN2 (some centres not stated) [LEUCOVORIN] | Not Active | Not Active | Not Active | Not Active | Not Active | Not Active | Not Active | Not Active | Not Active | – | – | – | – | – | – | – | –
3 | CC(=O)O[C@H]1C[C@@H]2CC[C@@H]3[C@H](CC[C@@]4(C)[C@H]3C[C@H]([N+]3(C)CCCCC3)[C@@H]4OC(C)=O)[C@@]2(C)C[C@@H]1N1CCCCC1.[Br-] [VECURONIUM BROMIDE] | Not Active | Not Active | Not Active | Not Active | Not Active | Not Active | Not Active | Not Active | Not Active | – | – | – | – | – | – | – | –
4 | C[C@@H](O)[C@H]1C(=O)N2C(C(=O)O)=C(S[C@@H]3CN[C@H](C(=O)N(C)C)C3)[C@H](C)[C@H]12 [MEROPENEM] | Not Active | Not Active | Not Active | Not Active | Not Active | Not Active | Not Active | Not Active | Not Active | – | – | – | – | – | – | – | –
5 | Cc1cn([C@H]2C[C@H](N=[N+]=[N-])[C@@H](CO)O2)c(=O)[nH]c1=O [ZIDOVUDINE] | Not Active | Not Active | Not Active | Not Active | Not Active | Not Active | Not Active | Not Active | Not Active | – | – | – | – | – | – | – | –
6 | COc1cc(N)nc2[nH]c(-c3ccc(F)cc3)c(-c3ccncc3)c12 | Not Active | Not Active | Not Active | – | Not Active | Not Active | Not Active | Not Active | Not Active | – | – | – | – | – | – | – | –
7 | CN1C2CCCC1CC(NC(=O)c1nn(C)c3ccccc13)C2 (configuration not stated) [GRANISETRON] | – | – | Not Active | Not Active | Not Active | – | – | Not Active | Not Active | – | – | – | – | – | – | – | –
8 | THIMEROSAL | Not Active | Not Active | Not Active | Not Active | Not Active | Not Active | Not Active | Not Active | Not Active | Not Active | Not Active | Not Active | Not Active | Not Active | – | – | –
9 | C[C@]12CC[C@H]3[C@@H](CCC4=CC(=O)CC[C@@]43C)[C@@H]1CC[C@@H]2O [TESTOSTERONE] | Not Active | Not Active | Not Active | Not Active | Not Active | Not Active | Not Active | Not Active | Not Active | – | – | – | – | – | – | – | –
10 | CNS(=O)(=O)Cc1ccc2[nH]cc(CCN(C)C)c2c1 | Not Active | Not Active | Not Active | Not Active | Not Active | Not Active | Not Active | Not Active | Not Active | – | – | – | – | – | – | – | –
11 | CO[C@H]1C[C@@H]2CC[C@@H](C)[C@@](O)(O2)C(=O)C(=O)N2CCCC[C@H]2C(=O)O[C@H]([C@H](C)C[C@@H]2CC[C@@H](O)[C@H](OC)C2)CC(=O)[C@H](C)/C=C(\C)[C@@H](O)[C@@H](OC)C(=O)[C@H](C)C[C@H](C)/C=C/C=C/C=C/1C [SIROLIMUS] | Not Active | Not Active | Not Active | Not Active | Not Active | Not Active | Not Active | Not Active | Not Active | – | – | – | – | – | – | – | –
12 | CC(C)OC(=O)C(C)(C)Oc1ccc(C(=O)c2ccc(Cl)cc2)cc1 [FENOFIBRATE] | – | – | Not Active | Not Active | Not Active | – | – | Not Active | Not Active | – | – | – | – | – | – | – | –
13 | CN(CCOc1ccc(CC2SC(=O)NC2=O)cc1)c1ccccn1 (configuration not stated) [ROSIGLITAZONE] | Not Active | Not Active | Not Active | Not Active | Not Active | Not Active | Not Active | Not Active | Not Active | – | – | – | – | – | – | – | –
14 | C=C(C)[C@H]1Cc2c(ccc3c2O[C@@H]2COc4cc(OC)c(OC)cc4[C@@H]2C3=O)O1 [ROTENONE] | Not Active | Not Active | Not Active | Not Active | Not Active | Not Active | Not Active | Not Active | Not Active | – | – | – | – | – | – | – | –
15 | Nc1ccc(S(=O)(=O)Nc2nccs2)cc1 [SULFATHIAZOLE] | Not Active | Not Active | Not Active | Not Active | Not Active | Not Active | Not Active | Not Active | Not Active | – | – | – | – | – | – | – | –
16 | OCCN1CCN(CCCN2c3ccccc3Sc3ccc(C(F)(F)F)cc32)CC1 [FLUPHENAZINE] | – | – | Not Active | Not Active | Not Active | – | – | – | Not Active | – | – | – | – | – | 1230 nM | 1200 nM | –

Row | Compound | IC50 [1] | Ki [1] | IC50 (Leukotriene C4 synthase) | IC50 [2] | IC50 (Insulin receptor) | IC50 [3] | Ki [3] | IC50 (Histamine H2 receptor; cho-k1) | IC50 [4] | Ki (Leukotriene C4 synthase) | Ki [2] | Ki (Insulin receptor) | Ki (Histamine H2 receptor; cho-k1) | Ki [4] | IC50 (Histamine H2 receptor; read-out: IC50) | Ki (Histamine H2 receptor; read-out: Ki) | IC50 ([2]; read-out: IC50)
17 | COc1ccc(CN2CCNCC2)c(OC)c1OC [TRIMETAZIDINE] | Not Active | Not Active | Not Active | Not Active | Not Active | Not Active | Not Active | Not Active | Not Active | – | – | – | – | – | – | – | –
18 | CC[C@@H](CO)NC(=O)[C@@H]1C=C2c3cccc4c3c(cn4C)C[C@H]2N(C)C1 [METHYSERGIDE] | – | – | Not Active | Not Active | Not Active | – | – | Not Active | Not Active | – | – | – | – | – | – | – | –
19 | COc1cc(C(=O)NS(=O)(=O)c2ccccc2C)ccc1Cc1cn(C)c2ccc(NC(=O)OC3CCCC3)cc12 [ZAFIRLUKAST] | Not Active | Not Active | Not Active | – | Not Active | Not Active | Not Active | Not Active | Not Active | – | – | – | – | – | – | – | 353 nM
20 | CCCc1nn(C)c2c(=O)[nH]c(-c3cc(S(=O)(=O)N4CCN(C)CC4)ccc3OCC)nc12 | Not Active | Not Active | Not Active | Not Active | Not Active | Not Active | Not Active | Not Active | Not Active | – | – | – | – | – | – | – | –
21 | CN[C@@H]1[C@H](O)[C@H](NC)[C@H]2O[C@@]3(O)C(=O)C[C@@H](C)O[C@H]3O[C@@H]2[C@H]1O [SPECTINOMYCIN] | Not Active | Not Active | Not Active | Not Active | Not Active | Not Active | Not Active | Not Active | Not Active | – | – | – | – | – | – | – | –
22 | CC(=O)Nc1nnc(S(N)(=O)=O)s1 [ACETAZOLAMIDE] | – | – | Not Active | Not Active | Not Active | – | – | Not Active | Not Active | – | – | – | – | – | – | – | –
23 | CCN(CC)CC#CCOC(=O)C(O)(c1ccccc1)C1CCCCC1 (configuration not stated) [OXYBUTYNIN] | – | – | Not Active | Not Active | Not Active | – | – | Not Active | Not Active | – | – | – | – | – | – | – | –
24 | CC(C)(C)NC[C@H](O)COc1nsnc1N1CCOCC1 [TIMOLOL] | Not Active | Not Active | Not Active | Not Active | Not Active | Not Active | Not Active | Not Active | Not Active | – | – | – | – | – | – | – | –
25 | O=P(O)(O)C(O)(Cc1cccnc1)P(=O)(O)O [RISEDRONIC ACID] | Not Active | Not Active | Not Active | Not Active | Not Active | Not Active | Not Active | Not Active | Not Active | – | – | – | – | – | – | – | –
26 | COc1ccc(/C=C/C(=O)Nc2ccccc2C(=O)O)cc1OC | Not Active | Not Active | Not Active | Not Active | Not Active | Not Active | Not Active | Not Active | Not Active | – | – | – | – | – | – | – | –
27 | O=c1[nH]c2ccccc2n1CCCN1CCC(n2c(=O)[nH]c3cc(Cl)ccc32)CC1 [DOMPERIDONE] | – | – | Not Active | Not Active | Not Active | – | – | Not Active | Not Active | – | – | – | – | – | – | – | –
28 | O=c1n(CCCN2CCN(c3cccc(Cl)c3)CC2)nc2ccccn12 [TRAZODONE] | – | – | Not Active | Not Active | Not Active | – | – | Not Active | Not Active | – | – | – | – | – | – | – | –
29 | CCOC(N)=O | Not Active | Not Active | Not Active | Not Active | Not Active | Not Active | Not Active | Not Active | Not Active | – | – | – | – | – | – | – | –
30 | C#CCN(C)[C@H](C)Cc1ccccc1 [SELEGILINE] | Not Active | Not Active | Not Active | Not Active | Not Active | Not Active | Not Active | Not Active | Not Active | – | – | – | – | – | – | – | –
31 | Nc1ccc(S(=O)(=O)Nc2ncccn2)cc1 [SULFADIAZINE] | Not Active | Not Active | Not Active | Not Active | Not Active | Not Active | Not Active | Not Active | Not Active | – | – | – | – | – | – | – | –
